± gives the expanded uncertainty stated by the source.
Key:
[1] = xn = mol fraction of the nth substance listed

CN1CCOCC1 [N-methylmorpholine]
Conditions | surface tension liquid-gas [mN/m]
298.15 K | 28.22 ± 0.69
308.15 K | 27.2 ± 0.67
318.15 K | 26.18 ± 0.64
328.15 K | 25.15 ± 0.62

CN1CCOCC1 [N-methylmorpholine] + O
surface tension liquid-gas [mN/m], [1]
Conditions | 298.15 K | 308.15 K | 318.15 K | 328.15 K
x1 = 0.0082 | 69.64 ± 1.6 | 67.64 ± 1.6 | 65.75 ± 1.5 | 63.98 ± 1.5
x1 = 0.0256 | 54.94 ± 1.3 | 53.18 ± 1.2 | 51.42 ± 1.2 | 49.66 ± 1.2
x1 = 0.0481 | 50.58 ± 1.2 | 48.64 ± 1.1 | 46.7 ± 1.1 | 44.76 ± 1.1
x1 = 0.0539 | 49.42 ± 1.2 | 47.71 ± 1.1 | 46 ± 1.1 | 44.3 ± 1
x1 = 0.0747 | 46.86 ± 1.1 | 45.35 ± 1.1 | 43.83 ± 1 | 42.32 ± 1
x1 = 0.0992 | 44.62 ± 1.1 | 43.24 ± 1 | 41.87 ± 0.99 | 40.49 ± 0.95
x1 = 0.1962 | 38.66 ± 0.92 | 37.36 ± 0.88 | 36.05 ± 0.85 | 34.75 ± 0.82
x1 = 0.2972 | 34.9 ± 0.83 | 33.66 ± 0.8 | 32.43 ± 0.77 | 31.19 ± 0.74
x1 = 0.395 | 32.72 ± 0.78 | 31.54 ± 0.75 | 30.35 ± 0.73 | 29.16 ± 0.7
x1 = 0.4993 | 31.33 ± 0.75 | 30.17 ± 0.73 | 29.02 ± 0.7 | 27.86 ± 0.67
x1 = 0.5952 | 30.56 ± 0.74 | 29.47 ± 0.71 | 28.37 ± 0.69 | 27.28 ± 0.66
x1 = 0.6979 | 29.81 ± 0.72 | 28.73 ± 0.7 | 27.65 ± 0.67 | 26.57 ± 0.65
x1 = 0.8028 | 29.24 ± 0.71 | 28.14 ± 0.68 | 27.03 ± 0.66 | 25.93 ± 0.63
x1 = 0.8925 | 28.81 ± 0.7 | 27.69 ± 0.68 | 26.57 ± 0.65 | 25.45 ± 0.63
x1 = 1 | 28.22 ± 0.69 | 27.2 ± 0.67 | 26.18 ± 0.64 | 25.15 ± 0.62

C1COCCN1 [tetrahydro-1,4-oxazine]
Conditions | surface tension liquid-gas [mN/m]
298.15 K | 37.68 ± 0.91
308.15 K | 36.46 ± 0.88
318.15 K | 35.24 ± 0.85
328.15 K | 34.02 ± 0.83

C1COCCN1 [tetrahydro-1,4-oxazine] + O
surface tension liquid-gas [mN/m], [1]
Conditions | 298.15 K | 308.15 K | 318.15 K | 328.15 K
x1 = 0.0125 | 68.36 ± 1.6 | 66.65 ± 1.6 | 64.55 ± 1.5 | 62.68 ± 1.5
x1 = 0.0155 | 67.66 ± 1.6 | 65.85 ± 1.5 | 66.74 ± 6 | 61.8 ± 1.4
x1 = 0.0251 | 65.41 ± 1.5 | 63.27 ± 1.5 | 61.14 ± 1.4 | 59 ± 1.4
x1 = 0.0496 | 62.08 ± 1.4 | 60.05 ± 1.4 | 58.03 ± 1.4 | 56 ± 1.3
x1 = 0.06 | 60.89 ± 1.4 | 58.94 ± 1.4 | 56.98 ± 1.3 | 55.03 ± 1.3
x1 = 0.0735 | 59.6 ± 1.4 | 57.66 ± 1.3 | 55.72 ± 1.3 | 53.78 ± 1.3
x1 = 0.0793 | 59.43 ± 1.4 | 57.69 ± 1.3 | 55.63 ± 1.3 | 53.65 ± 1.3
x1 = 0.0854 | 58.94 ± 1.4 | 56.56 ± 1.3 | 54.18 ± 1.3 | 51.8 ± 1.2
x1 = 0.0991 | 57.71 ± 1.4 | 55.42 ± 1.3 | 53.12 ± 1.2 | 50.83 ± 1.2
x1 = 0.2005 | 51.23 ± 1.2 | 49.14 ± 1.1 | 47.05 ± 1.1 | 44.96 ± 1.1
x1 = 0.2973 | 47.24 ± 1.1 | 45.52 ± 1.1 | 43.8 ± 1 | 42.09 ± 0.99
x1 = 0.3969 | 44.64 ± 1.1 | 43.2 ± 1 | 41.75 ± 0.99 | 40.31 ± 0.95
x1 = 0.4996 | 43.06 ± 1 | 41.7 ± 0.99 | 40.33 ± 0.96 | 38.97 ± 0.93
x1 = 0.5977 | 41.55 ± 0.99 | 40.25 ± 0.96 | 38.96 ± 0.93 | 37.66 ± 0.9
x1 = 0.7005 | 40.33 ± 0.96 | 39.12 ± 0.93 | 37.91 ± 0.91 | 36.7 ± 0.88
x1 = 0.8034 | 39.3 ± 0.94 | 38.1 ± 0.91 | 36.9 ± 0.89 | 35.69 ± 0.86
x1 = 0.9096 | 38.38 ± 0.92 | 37.16 ± 0.89 | 35.95 ± 0.87 | 34.73 ± 0.84
x1 = 1 | 37.68 ± 0.91 | 36.46 ± 0.88 | 35.24 ± 0.85 | 34.02 ± 0.83

O [water] + C1COCCN1
[1], x2 = 0
Conditions | surface tension liquid-gas [mN/m]
298.15 K | 72.01 ± 1.7
308.15 K | 70.41 ± 1.6
318.15 K | 68.79 ± 1.6
328.15 K | 67.17 ± 1.6

O [water] + CN1CCOCC1
[1], x2 = 0
Conditions | surface tension liquid-gas [mN/m]
298.15 K | 72.01 ± 1.7
308.15 K | 70.41 ± 1.6
318.15 K | 68.79 ± 1.6
328.15 K | 67.17 ± 1.6

Source: the NIST ThermoML archive (doi:10.1021/je0340250)
